According to patent publication US7417156B2, “Orally active, antimalarial, anticancer, artemisinin-derived trioxane dimers” (Johns Hopkins University, priority 2002, dated 2008):
pIC50: −log10 of the molar value.

Assays:
[1] = test system: CCRF-CEM; test: NCI 60 cell line panel screen (SRB); type: cell-based, human
[2] = test system: K-562; test: NCI 60 cell line panel screen (SRB); type: cell-based, human
[3] = test system: chloroquine-sensitive P. falciparum (NF54); test: Antimalarial activity in vitro, [3H]hypoxanthine incorporation; type: cell-based; conditions: Table I; NF54 strain; read-out: IC50
[4] = test system: 60 cell line panel; type: cell-based
[5] = test system: HCT-15; test: NCI 60 cell line panel screen (SRB); type: cell-based, human
[6] = test system: PC-3; test: NCI 60 cell line panel screen (SRB); type: cell-based, human
[7] = test system: HOP-92; test: NCI 60 cell line panel screen (SRB); type: cell-based, human
[8] = test system: HL-60(TB); test: NCI 60 cell line panel screen (SRB); type: cell-based, human
[9] = test system: UACC-257; test: NCI 60 cell line panel screen (SRB); type: cell-based, human; conditions: UACC-257 (Melanoma)
[10] = test system: MCF7; test: NCI 60 cell line panel screen (SRB); type: cell-based, human
[11] = test system: KM12; test: NCI 60 cell line panel screen (SRB); type: cell-based, human
[12] = test system: OVCAR-3; test: NCI 60 cell line panel screen (SRB); type: cell-based, human
[13] = test system: A549/ATCC; test: NCI 60 cell line panel screen (SRB); type: cell-based, human
[14] = test system: HS 578T; test: NCI 60 cell line panel screen (SRB); type: cell-based, human
[15] = test system: MOLT-4
Procedure: Growth Inhibition. […] The screening assay is performed on 96-well microtitre plates. Relatively high initial inoculation densities are used, in order to permit measurement of “time-zero” values and to enhance the screen's ability to detect and provide some differentiation between growth inhibition and cytotoxic response parameters. […] The inoculated microtitre plates are pre-incubated for 24 hours at 37° C. prior to drug additions. The five drug dilutions tested routinely range from 10^−4 to 10^−8 molar. Higher or lower concentration ranges may be selected on a non-routine basis if appropriate solubility and/or prior biological information or other screening data so dictate. Duplicate wells are prepared for all concentrations, (concentration is often denoted by placing brackets around a number); “time-zero” and “no drug” controls are also provided for each test. The minimum amount of compound required for a one-time evaluation in the routine screen can be calculated from the knowledge that each test requires a total of approximately 40 ml (0.04 liter) of cell culture medium containing the highest desired drug concentration. […] After a 48 hour incubation (37° C.) with the test compound, the cells are fixed in situ to the bottoms of the microtitre wells by addition of 50 μl of either 50% trichloroacetic acid (for adherent cell lines) or 80% trichloroacetic acid (for settled cell suspension lines), followed by incubation for 60 minutes at 4° C. The cellular protein in each well is assayed using a sulforhodamine B (SRB) stain procedure. Briefly, after discarding the supernatants, the microtitre plates are washed 5 times with deionized water and air-dried. […] Unbound SRB is removed by washing 5 times with 1% acetic acid. […] SRB is a bright pink anionic dye which, in dilute acetic acid, binds electrostatically to the basic amino acids of TCA-fixed cells. Cryopreserved master stocks of all the lines are maintained, and cultures used for screening are replaced from the master stock after no more than twenty passages in the screening laboratory. The cell line panel consists of 60 lines, organized into nine, disease-related subpanels including leukemia, non-small-cell lung cancer, colon, CNS, melanoma, ovarian, renal, prostate and breast cancers.
At this value the increase from time tzero, in the number or mass of cells in the test well is only 50% as much as the corresponding increase in the control well during this period of the experiment, see Table III. A drug effect of this intensity is interpreted as primary growth inhibition.
At this value the number or mass of cells in the well at the end of the experiment equals the number or mass of cells in the well at time tzero, see Table IV. A drug effect of this intensity is regarded as cytostasis.
At this value, the number or mass of cells in the test well at the end of the experiment is half that at time tzero, see Table V. This is interpreted as cytotoxicity.
Dose response curves, shown in the above mentioned Figures, are obtained by exposing various cancer cell lines to compounds having a known concentration ([log10M]), as discussed in detail above, and then plotting the percentage growth of each cell line for each concentration. […] Percentage growth is determined by dividing the number or mass of cells in the test well by the number or mass of cells in a control well. […] As discussed previously, the five drug dilutions routinely tested range from 10^−4 to […].

[16] = test system: NCI-H460; test: NCI 60 cell line panel screen (SRB); type: cell-based, human
[17] = mean value over the 60 cell line panel

C[C@@H]1CC[C@H]2[C@@H](C)C(CC(O)(CC3OC4O[C@]5(C)CC[C@H]6[C@H](C)CC[C@@H]([C@H]3C)C46OO5)c3ccc(C(=O)O)cc3)OC3O[C@]4(C)CCC1C32OO4 (stereo partly shown) [Compound 11b, bis-trioxane tertiary alcohol benzoic acid]
Log10LC50 ([1]; CCRF-CEM (Leukemia), LC50: PG=−50): >−4.30 log10M
Log10TGI50 ([1]; CCRF-CEM (Leukemia), TGI: PG=0): >−4.30 log10M
Log10GI50 ([1]; Leukemia, CCRF-CEM): −8.07
Log10LC50 ([2]; K-562 (Leukemia), LC50: PG=−50): >−4.30 log10M
Log10TGI50 ([2]; K-562 (Leukemia), TGI: PG=0): >−4.30 log10M
Log10GI50 ([2]; Leukemia, K-562): <−8.30
pIC50 [3]: 8.68
Log10GI50 Delta [4]: 0.93
Log10GI50 Range [4]: 3.52
Log10LC50 Delta ([4]; 60 cell line panel): 1.58
Log10LC50 Range ([4]; 60 cell line panel): 1.65
Log10TGI50 Delta ([4]; 60 cell line panel): 3.18
Log10TGI50 Range ([4]; 60 cell line panel): 4.00
growth inhibition in words ([4]; colon cancer KM12, ovarian cancer OVCAR 3, breast cancer MDA-MB-435): selectively and strong inhibitory
Log10GI50 MG MID ([4]; mean over panel): −7.37
Log10LC50 MG MID [4, 17]: −4.37 log10M
Log10TGI50 MG MID [4, 17]: −5.12 log10M
Log10GI50 ([5]; Colon Cancer, HCT-15): <−8.30
Log10LC50 ([5]; HCT-15 (Colon Cancer), LC50: PG=−50): >−4.30 log10M
Log10TGI50 ([5]; HCT-15 (Colon Cancer), TGI: PG=0): −6.70 log10M
Log10LC50 ([6]; PC-3 (Prostate Cancer), LC50: PG=−50): >−4.30 log10M
Log10TGI50 ([6]; PC-3 (Prostate Cancer), TGI: PG=0): −5.75 log10M
Log10GI50 ([6]; Prostate Cancer, PC-3): <−8.30
Log10LC50 ([7]; HOP-92 (Non-Small Cell Lung Cancer), LC50: PG=−50): >−4.30 log10M
Log10TGI50 ([7]; HOP-92 (Non-Small Cell Lung Cancer), TGI: PG=0): >−4.30 log10M
Log10GI50 ([7]; Non-Small Cell Lung Cancer, HOP-92): −7.43
Log10LC50 ([8]; HL-60(TB) (Leukemia), LC50: PG=−50): −4.55 log10M
Log10TGI50 ([8]; HL-60(TB) (Leukemia), TGI: PG=0): −8.11 log10M
Log10GI50 ([8]; Leukemia, HL-60(TB)): <−8.30
Log10LC50 ([9]; LC50: PG=−50): >−4.30 log10M
Log10TGI50 ([9]; TGI: PG=0): >−4.30 log10M
Log10GI50 ([10]; Breast Cancer, MCF7): <−8.30
Log10LC50 ([10]; MCF7 (Breast Cancer), LC50: PG=−50): >−4.30 log10M
Log10TGI50 ([10]; MCF7 (Breast Cancer), TGI: PG=0): >−4.30 log10M
Log10GI50 ([11]; Colon Cancer, KM12): <−8.30
Log10LC50 ([11]; KM12 (Colon Cancer), LC50: PG=−50): −5.95 log10M
Log10TGI50 ([11]; KM12 (Colon Cancer), TGI: PG=0): <−8.30 log10M
Log10LC50 ([12]; OVCAR-3 (Ovarian Cancer), LC50: PG=−50): >−4.30 log10M
Log10TGI50 ([12]; OVCAR-3 (Ovarian Cancer), TGI: PG=0): −8.07 log10M
Log10GI50 ([12]; Ovarian Cancer, OVCAR-3): <−8.30
Log10LC50 ([13]; A549/ATCC (Non-Small Cell Lung Cancer), LC50: PG=−50): >−4.30 log10M
Log10TGI50 ([13]; A549/ATCC (Non-Small Cell Lung Cancer), TGI: PG=0): >−4.30 log10M
Log10GI50 ([13]; Non-Small Cell Lung Cancer, A549/ATCC): −5.69
Log10GI50 ([14]; Breast Cancer, HS 578T): −5.15
Log10LC50 ([14]; HS 578T (Breast Cancer), LC50: PG=−50): >−4.30 log10M
Log10TGI50 ([14]; HS 578T (Breast Cancer), TGI: PG=0): >−4.31 log10M
Log10GI50 ([15]; Leukemia, MOLT-4): <−8.30
Log10LC50 ([15]; MOLT-4 (Leukemia), LC50: PG=−50): >−4.30 log10M
Log10TGI50 ([15]; MOLT-4 (Leukemia), TGI: PG=0): >−4.30 log10M
Log10LC50 ([16]; NCI-H460 (Non-Small Cell Lung Cancer), LC50: PG=−50): >−4.30 log10M
Log10TGI50 ([16]; NCI-H460 (Non-Small Cell Lung Cancer), TGI: PG=0): >−4.30 log10M
Log10GI50 ([16]; Non-Small Cell Lung Cancer, NCI-H460): <−8.30
